We go through 7 compounds from patent publication US20060063791A1, “(Spirocyclylamido)aminothiophene compounds” (priority 2004, published 2006).

Structures can show the parent of a compound that is named as a salt.

Assay [1] has as its target T1, wild-type c-Kit receptor protein endogenously expressed in H526 cells (Homo sapiens, UniProt P10721).
T1 construct: wild-type c-Kit receptor protein that is endogenously expressed in H526 cells; endogenous in cells; host or cells: H526 (ATCC # CRL-5811), human small cell lung cancer
The experiment in a line: Assay for inhibition of c-Kit in intact cells (C-KIT H526 cell assay, ELISA of SCF-stimulated tyrosine phosphorylation). The following applies: 3 h compound pre-incubation, SCF stimulation 15 min, read-out: IC50 (concentration of compound that inhibits SCF-induced tyrosine phosphorylation of the c-Kit protein by 50%). In kind it is cell-based. Here is the method:
C-KIT H526 Cell Assay Protocol
I. Assay for Inhibition of c-Kit in Intact Cells
The ability of compounds to inhibit the tyrosine kinase activity of c-Kit was determined in a cell-based ELISA assay using the H526 cell line (ATCC # CRL-5811), which was originally derived from a human small cell lung cancer. The assay determines the ability of compounds to block ligand-stimulated tyrosine phosphorylation of the wild-type c-Kit receptor protein that is endogenously expressed in H526 cells. Cells are pre-incubated with compounds at various concentrations prior to addition of stem cell factor (SCF), the ligand for the c-Kit receptor tyrosine kinase. Cell lysates are then prepared and the c-Kit protein is captured onto a c-Kit antibody-coated 96-well ELISA plate. The phosphotyrosine content of the receptor protein is then monitored by quantitation of the degree of binding of an antibody that recognizes only the phosphorylated tyrosine residues within the captured protein. The antibody used has a reporter enzyme (e.g. horseradish peroxidase, HRP) covalently attached, such that binding of antibody to phosphorylated c-Kit can be determined quantitatively by incubation with an appropriate HRP substrate.
Cell Lysis Buffer: • 50 mM Tris-HCl, pH 7.4 • 150 mM NaCl • 10% Glycerol • 1% Triton X-100 • 0.5 mM EDTA • 1 μg/mL leupeptin • 1 μg/mL aprotinin • 1 mM Sodium orthovanadate
Anti c-Kit Antibody: • 0.5 μg/mL anti c-Kit Ab-3 (Lab Vision, catalog #MS289P1) in 50 mM Sodium bicarbonate, pH 9.
ELISA Assay Plates: • ELISA assay plates are prepared by addition of 100 μL of anti c-Kit antibody to each well of a 96-well Microlite-2 plate (Dynex, catalog # 7417), followed by incubation at 37° C. for 2 h. The wells are then washed twice with 300 μL wash buffer.
Plate Wash Buffer: • PBS containing 0.5% Tween-20 (PBST)
Cell Assay Medium: • RPMI with 0.1% BSA
pY20-HRP: • 25 ng/mL pY20-HRP (Calbiochem, catalog # 525320) in PBS, containing 0.5% Tween-20, 5% BSA, 1 mM Sodium orthovanadate
HRP Substrate: • Chemoluminescent detection reagent (Pierce, catalog # 37075)
Cultures of H526 cells, growing in RPMI with 10% fetal calf serum, were collected by centrifugation, washed twice with PBS, and suspended in cell assay medium. Cells were then distributed into a V-bottom 96-well plate at 7.5×10^4 cells per well in 100 μL cell assay medium.
Compound dilutions were prepared from 10 mM DMSO stocks by dilution in cell assay medium, the final concentration of DMSO in the assay being 0.1%. To compound incubation wells, 50 μL of the test compound was added (compounds are assayed at concentrations between 0.1 nM and […]); to positive and negative control wells, 50 μL cell assay medium containing 0.1% DMSO was added. The cells were then incubated with compound at 37° C. for 3 h. SCF (R&D Systems, catalog #255-SC-010) was then added in order to stimulate the c-Kit receptor and induce its tyrosine phosphorylation. Then, 10 μL of a 1.6 μg/mL solution of SCF in cell assay medium was added to all wells apart from the negative control wells, and the cells were incubated for an additional 15 min at 37° C. Following the addition of ice-cold PBS, the plate was centrifuged at 1000 rpm for 5 min, the medium removed by aspiration, and the cell pellet lysed by the addition of 120 μL ice-cold cell lysis buffer per well. The plate was kept on ice for 20 min and 100 μL of the cell lysates from each well were then transferred to the wells of an ELISA assay plate and incubated at 4° C. for 16 h.
Following incubation of the cell lysates in the ELISA plate, the wells were washed 4 times with 300 μL wash buffer, then 100 μL of the phosphotyrosine detection antibody pY20-HRP was added to each well and the plate incubated at rt for 2 h. The wells were then washed 4 times with 300 μL wash buffer. Then, 50 μL of the chemiluminescent HRP substrate was added to each well for luminometric quantitation of the amount of antiphosphotyrosine-HRP conjugate bound to the plate. […]
(In general: An ELISA detects its analyte on a solid surface through an enzyme-linked reagent.)

Assay [2] deals with MO7e human leukemia cells. Particulars: cited from earlier work.
Assay [3] relates to MO7e human leukemia cells. The following applies: cited from earlier work. The source holds these as a separate data set.

T1 sequence (P10721 26-976): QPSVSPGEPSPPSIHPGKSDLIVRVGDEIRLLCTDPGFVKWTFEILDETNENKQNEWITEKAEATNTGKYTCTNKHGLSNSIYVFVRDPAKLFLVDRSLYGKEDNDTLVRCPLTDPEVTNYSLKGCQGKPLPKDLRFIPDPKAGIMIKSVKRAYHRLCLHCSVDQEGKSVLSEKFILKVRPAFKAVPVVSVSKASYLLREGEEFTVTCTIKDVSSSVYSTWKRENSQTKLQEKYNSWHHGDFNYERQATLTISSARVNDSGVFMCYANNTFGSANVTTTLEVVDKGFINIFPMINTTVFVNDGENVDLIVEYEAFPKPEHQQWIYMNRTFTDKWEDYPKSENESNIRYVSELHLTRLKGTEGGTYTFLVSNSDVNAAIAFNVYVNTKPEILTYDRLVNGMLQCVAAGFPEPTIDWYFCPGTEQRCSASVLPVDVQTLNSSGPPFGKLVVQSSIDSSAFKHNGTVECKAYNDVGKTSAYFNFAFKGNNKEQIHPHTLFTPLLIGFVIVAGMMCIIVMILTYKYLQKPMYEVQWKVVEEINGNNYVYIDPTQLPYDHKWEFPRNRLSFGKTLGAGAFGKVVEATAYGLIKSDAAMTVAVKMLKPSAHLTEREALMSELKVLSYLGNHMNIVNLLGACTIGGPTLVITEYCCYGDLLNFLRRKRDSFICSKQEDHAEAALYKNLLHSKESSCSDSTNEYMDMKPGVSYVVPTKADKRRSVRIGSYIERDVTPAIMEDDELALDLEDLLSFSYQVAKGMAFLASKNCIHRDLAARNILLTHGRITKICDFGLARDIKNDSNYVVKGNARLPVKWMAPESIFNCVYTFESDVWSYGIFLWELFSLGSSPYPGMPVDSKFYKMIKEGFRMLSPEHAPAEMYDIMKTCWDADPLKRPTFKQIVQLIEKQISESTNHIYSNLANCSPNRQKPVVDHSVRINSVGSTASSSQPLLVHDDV

`CN1CCN[C@]2(CC[C@@H](NC(=O)c3sccc3NCc3ccnc4ccccc34)CC2)C1=O` [Compound 1, cis-N-(4-Methyl-5-oxo-1,4-diazaspiro[5.5]undec-9-yl)-3-[(quinolin-4-ylmethyl)amino]thiophene-2-carboxamide]: the IC50 in assay [1] was over 15 µM. On to `O=C(N[C@H]1CC[C@@]2(CC1)CC(=O)N(Cc1ccccc1)N2)c1sccc1NCc1ccnc2ccccc12` [Compound 2, cis-N-(2-Benzyl-3-oxo-1,2-diazaspiro[4.5]dec-8-yl)-3-[(quinolin-4-ylmethyl)amino]thiophene-2-carboxamide], for which the IC50 in assay [1] is over 15 µM. With `O=C(NC1CCC2(CC1)NC(=O)N(Cc1ccccc1)C2=O)c1sccc1NCc1ccnc2ccccc12` (stereo not drawn) [Compound 3, N-(3-Benzyl-2,4-dioxo-1,3-diazaspiro[4.5]dec-8-yl)-3-[(quinolin-4-ylmethyl)amino]thiophene-2-carboxamide], in assay [1], the IC50 was over 15 µM.

Turning to `O=C1NC(=O)C2(CCC(NC(=O)c3sccc3NCc3ccnc4ccccc34)CC2)N1` (stereo not drawn) [Compound 4, N-(2,4-Dioxo-1,3-diazaspiro[4.5]dec-8-yl)-3-[(quinolin-4-ylmethyl)amino]thiophene-2-carboxamide], the IC50 in assay [1] was over 15 µM. Same read-out and setting: as for `Cc1csc(C(=O)NC2CCC3(CC2)NC(=O)N(CCC(C)C)C3=O)c1NCc1ccnc2ccccc12` (stereo not drawn) [Compound 5, N-[3-(3-Methylbutyl)-2,4-dioxo-1,3-diazaspiro[4.5]dec-8-yl]-4-methyl-3-[(quinolin-4-ylmethyl)amino]thiophene-2-carboxamide], the figure is over 15 µM; as for `O=C(Nc1ccc2c(c1)C1(CCN(C(=O)OCc3ccccc3)CC1)CN2)c1sccc1NCc1ccnc2ccccc12` [Compound 6], over 15 µM. As for `Cc1ccc(NC(=O)c2ccc(CN3CCN(C)CC3)cc2)cc1Nc1nccc(-c2cccnc2)n1` [Gleevec, imatinib mesylate], the apoptosis entry in assay [2] (Kit ligand-stimulated conditions) is on record as “induces apoptosis”. In assay [2] (Kit ligand-stimulated), the Kit ligand-stimulated growth result was “inhibited”. Moreover, the GM-CSF stimulated growth entry in assay [3] is listed as “not affected”.
